# Results published in patent US20150093335A1, “CELL-TARGETED MAGNETIC NANO-MATERIAL AND BIOMEDICAL USES THEREOF” (Institute of Geology and Geophysics, Chinese Academy of …, priority 2012, published 2015).
# Counter-ions that a name gives are not always drawn.
# Legend:
# U87MG human glioma = assay: 4.7T MRI of in-situ glioma; format: in vivo, nude mouse; conditions: 0.1 mmol/kg tail vein, scanned 2 hours, glioma about 1-2 mm
# Experimental: 10^6 U87MG human glioma cells (purchased from ATCC, cultivated at Nanjing KeyGEN BioTECH development Ltd.) are inoculated onto the cerebral cortex of a nude mouse by in-situ penetration through the cranium and its tympanic membrane slightly off the median line of the cerebrum. Magnetic resonance imaging is conducted after about 3-4 days. The nude mouse is anesthetized by respiratory anesthesia and an intravenous needle is detained in tail vein. The mouse is put into a 4.7T MRI system and stays in stationary state in the course of magnetic resonance scanning. The commercialized Gd-DTPA contrast agent (magnevist, produced by Bayer Corp.) is first injected through tail vein as reference (injection dosage: 0.1 mmol/kg) and is scanned continuously for 2 hours in the magnetic resonance chamber. After the Gd-DTPA is completely metabolized and excreted, human H-subunit magnetoferritin is injected through tail vein (injection dosage: 20 mg Fe/kg mouse weight) and is scanned continuously for 3 hours. […]
# Purified human H-subunit ferritin is partially or totally denatured using denaturant such as guanidine hydrochloride (1-7 M) or urea (2-8 M) etc. such that the subunits are partially or totally depolymerized. […] Protein quantification is conducted using BCA protein quantification reagent kit. The number of Gd atoms encapsulated in a single protein molecule is measured using ICP-MS. […]
# [1] = Longitudinal (r1) and transversal relaxivity measurement of gadolinium materials, 4.7T MRI; format: physicochemical; conditions: per gadolinium concentration 0-1 mM
# Source text: Gd contrast agents in clinical use can enhance the signal intensity of the lesion area during T1-weighted magnetic resonance imaging, thus showing a bright area. Since human naked eye is more sensitive to bright matters, these contrast agents can better meet the needs of human naked eye. But Gd contrast agents in clinical use have no targeting feature and have a low relaxation rate, thus failing to meet the needs for early diagnosis of diseases such as tumors. In the present invention, a tumor-targeted ferritin shell is used, and in the cavity thereof a gadolinium-iron nano-material is formed by biomimetic mineralization. By using purified human H-subunit ferritin as a template, a ferrous salt, a gadolinium salt and oxidant hydrogen peroxide are added into a solution of recombinant human ferritin, controlling the pH at 8.5 and the temperature at 65° C. […] The numbers of iron atoms and gadolinium atoms are measured through inductively coupled plasma mass spectrometry. The longitudinal relaxivity (r1) and transversal relaxivity (r2) of the material are measured using a 4.7T magnetic resonance imaging system. […]
# NCI-H460 lung cancer = assay: Treatment experiment on lung cancer in vivo
longitudinal relaxivity r1 [1],Compound,T1-weighted MRI signal intensity of the glioma area after injection (U87MG human glioma),"tumor volume difference versus PBS control group (NCI-H460 lung cancer; 8 days after administration, doxorubicin 3 mg/kg every 3 days)","average tumor inhibition rate (NCI-H460 lung cancer; tumor weights, doxorubicin 3 mg/kg tail vein every 3 days, 15 days, 3 mice per group)"
about 5.9 mM^−1S^−1,O=C([O-])CN(CCN(CC(=O)[O-])CC(=O)O)CCN(CC(=O)[O-])CC(=O)O.[Gd+3] [Gd-DTPA],no evident change,–,–
–,COc1cccc2c1C(=O)c1c(O)c3c(c(O)c1C2=O)C[C@@](O)(C(=O)CO)C[C@@H]3O[C@H]1C[C@H](N)[C@H](O)[C@H](C)O1 [doxorubicin hydrochloride],–,minute difference,23%
